From patent US20020115663A1, “Novel compounds” (priority 2000, published 2002)

Biological target: Human PTP1B (Homo sapiens, UniProt P18031)
Details: 2 mM, control wells
Protocol: Human PTP1B (amino acid residues 1-298, cloned from a human placental library), without the GST tag and thrombin cleavage site, was inserted into a pMB replicon and transformed into E. coli BL21 (DE3), a strain containing a chromosomal copy of the gene for T7 RNA polymerase under control of a lacUV5 promoter. Expression of PTP1B was induced with isopropyl thiogalactose and cells were lysed in lysis buffer comprising 50 mM Tris-HCl pH 7.5, 10% glycerol, 1 mM EDTA, 3 mM DTT, 3 mM MgCl2, and 0.2 mg/ml lysozyme with 1 mg/ml DNAse I. The soluble protein was purified by ion exchange, hydrophobic interaction and gel exclusion chromatography for use in assays to identify PTP1B inhibitors. […] Recombinant proteins were stored at −70° C. until used.
Human PTP1B activity was measured using p-nitrophenol phosphate (pNPP) as substrate in a 96-well microtiter plate format. An assay pH of 7.2 is used for standard assays (measured extinction coefficient =9800 at pH 7.2).
Standard assays were conducted at room temperature in a total volume of 0.2 ml that contains Hepes buffer (50 mM, pH 7.2), NaCl (50 mM), EDTA (1 mM), DTT (1 mM), bovine serum albumin (1 mg/ml), pNPP (1.25 mM) and PTP1B (500 ng/ml, 13.5 nM). […] The OD^405 was subsequently measured. […]

Human PTP1B, sequence (P18031 1-298): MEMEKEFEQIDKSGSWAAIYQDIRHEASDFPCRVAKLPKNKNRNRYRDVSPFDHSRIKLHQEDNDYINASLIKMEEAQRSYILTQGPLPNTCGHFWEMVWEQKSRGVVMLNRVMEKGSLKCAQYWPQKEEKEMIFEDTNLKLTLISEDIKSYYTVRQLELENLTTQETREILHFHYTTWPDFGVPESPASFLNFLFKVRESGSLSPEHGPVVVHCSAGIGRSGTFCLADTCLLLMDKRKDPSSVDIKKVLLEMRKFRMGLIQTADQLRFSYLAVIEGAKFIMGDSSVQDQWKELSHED

SMILES: [Na+].[Na+].[Na+].[O]=[V]([O-])([O-])[O-] [sodium orthovanadate]
- inhibition of PTP1B-catalyzed hydrolysis of pNPP: completely
